# pIC50: −log10 of the molar value.
# Experiment: Inhibition of West Nile virus NS2B-NS3 serine protease using Pyr-RTKR-AMC as substrate incubated for 1 hr prior to substrate addition measured every 45 secs for 1 hr by fluorescence assay
row,SMILES,pIC50
1,CC(=O)N[C@@H](CCCCN)C(=O)N[C@@H](CCCCN)C(=O)NCCCCNC(=N)N,4.74
2,N=C(N)NCCCCNC(=O)[C@H](CCCCN)NC(=O)[C@H](CCCCN)NC(=O)Cc1cccc(-c2ccccc2)c1,5.00
3,N=C(N)NCCCCNC(=O)[C@H](CCCCN)NC(=O)[C@H](Cc1ccc(O)cc1)NCC(=O)c1ccc(-c2ccccc2)cc1,4.47
4,N=C(N)NCCCCNC(=O)[C@H](CCCCN)NC(=O)[C@@H](N)CCCCN,4.42
5,CCC(=O)N[C@@H](CCCCN)C(=O)N[C@@H](CCCCN)C(=O)NCCCCNC(=N)N,4.72
6,CCCC(=O)N[C@@H](CCCCN)C(=O)N[C@@H](CCCCN)C(=O)NCCCCNC(=N)N,4.73
7,CC(C)CC(=O)N[C@@H](CCCCN)C(=O)N[C@@H](CCCCN)C(=O)NCCCCNC(=N)N,4.72
8,CC(C)C(=O)N[C@@H](CCCCN)C(=O)N[C@@H](CCCCN)C(=O)NCCCCNC(=N)N,4.62
9,CC(C)(C)C(=O)N[C@@H](CCCCN)C(=O)N[C@@H](CCCCN)C(=O)NCCCCNC(=N)N,4.57
10,N=C(N)NCCCCNC(=O)[C@H](CCCCN)NC(=O)[C@H](CCCCN)NC(=O)c1ccccc1,4.41
11,N=C(N)NCCCCNC(=O)[C@H](CCCCN)NC(=O)[C@H](CCCCN)NC(=O)c1cccc2ccccc12,4.48
12,N=C(N)NCCCCNC(=O)[C@H](CCCCN)NC(=O)[C@H](CCCCN)NC(=O)c1ccc2ccccc2c1,4.49
13,N=C(N)NCCCCNC(=O)[C@H](CCCCN)NC(=O)[C@H](CCCCN)NC(=O)Cc1ccccc1,5.07
14,N=C(N)NCCCCNC(=O)[C@H](CCCCN)NC(=O)[C@H](CCCCN)NC(=O)CCc1ccccc1,4.37
15,N=C(N)NCCCCNC(=O)[C@H](CCCCN)NC(=O)[C@H](CCCCN)NC(=O)CCCc1ccccc1,4.95
16,N=C(N)NCCCCNC(=O)[C@H](CCCCN)NC(=O)[C@H](CCCCN)NC(=O)Cc1ccccc1Cl,5.59
17,N=C(N)NCCCCNC(=O)[C@H](CCCCN)NC(=O)[C@H](CCCCN)NC(=O)Cc1cccc(Cl)c1,5.02
18,N=C(N)NCCCCNC(=O)[C@H](CCCCN)NC(=O)[C@H](CCCCN)NC(=O)Cc1ccc(Cl)cc1,5.32
19,Cc1ccccc1CC(=O)N[C@@H](CCCCN)C(=O)N[C@@H](CCCCN)C(=O)NCCCCNC(=N)N,5.17

row,SMILES,pIC50
1,Cc1cccc(CC(=O)N[C@@H](CCCCN)C(=O)N[C@@H](CCCCN)C(=O)NCCCCNC(=N)N)c1,5.04
2,Cc1ccc(CC(=O)N[C@@H](CCCCN)C(=O)N[C@@H](CCCCN)C(=O)NCCCCNC(=N)N)cc1,5.16
3,N=C(N)NCCCCNC(=O)[C@H](CCCCN)NC(=O)[C@@H](CCCCN)NCC(=O)c1ccc(-c2ccccc2)cc1,< 4.00
4,N=C(N)NCCCCNC(=O)[C@H](CCCCN)NC(=O)CNCC(=O)c1ccc(-c2ccccc2)cc1,< 4.00
5,C[C@H](NCC(=O)c1ccc(-c2ccccc2)cc1)C(=O)N[C@@H](CCCCN)C(=O)NCCCCNC(=N)N,4.27
6,CC(C)[C@H](NCC(=O)c1ccc(-c2ccccc2)cc1)C(=O)N[C@@H](CCCCN)C(=O)NCCCCNC(=N)N,< 4.00
7,CC(C)C[C@H](NCC(=O)c1ccc(-c2ccccc2)cc1)C(=O)N[C@@H](CCCCN)C(=O)NCCCCNC(=N)N,< 4.00
8,CCCC[C@H](NCC(=O)c1ccc(-c2ccccc2)cc1)C(=O)N[C@@H](CCCCN)C(=O)NCCCCNC(=N)N,4.32
9,N=C(N)NCCCCNC(=O)[C@H](CCCCN)NC(=O)[C@@H]1CCCN1CC(=O)c1ccc(-c2ccccc2)cc1,< 4.00
10,N=C(N)NCCCCNC(=O)[C@H](CCCCN)NC(=O)[C@H](CC(N)=O)NCC(=O)c1ccc(-c2ccccc2)cc1,< 4.00
11,N=C(N)NCCCCNC(=O)[C@H](CCCCN)NC(=O)[C@H](CCC(N)=O)NCC(=O)c1ccc(-c2ccccc2)cc1,< 4.00
12,N=C(N)NCCCCNC(=O)[C@H](CCCCN)NC(=O)[C@H](CO)NCC(=O)c1ccc(-c2ccccc2)cc1,< 4.00
13,N=C(N)NCCCCNC(=O)[C@H](CCCCN)NC(=O)[C@H](CC(=O)O)NCC(=O)c1ccc(-c2ccccc2)cc1,< 4.00
14,N=C(N)NCCCCNC(=O)[C@H](CCCCN)NC(=O)[C@H](CCC(=O)O)NCC(=O)c1ccc(-c2ccccc2)cc1,< 4.00
15,N=C(N)NCCCCNC(=O)[C@H](CCCCN)NC(=O)[C@H](CCCNC(=N)N)NCC(=O)c1ccc(-c2ccccc2)cc1,4.72
16,N=C(N)NCCCCNC(=O)[C@H](CCCCN)NC(=O)[C@H](Cc1cnc[nH]1)NCC(=O)c1ccc(-c2ccccc2)cc1,< 4.00
17,N=C(N)NCCCCNC(=O)[C@H](CCCCN)NC(=O)[C@H](Cc1ccccc1)NCC(=O)c1ccc(-c2ccccc2)cc1,4.35
18,N=C(N)NCCCCNC(=O)[C@H](CCCCN)NC(=O)[C@H](CCCCN)NCC(=O)c1ccc(-c2ccccc2)cc1,5.33
19,CC(=O)N[C@@H](CCCCN)C(=O)NCCCCNC(=N)N,< 4.00

# — ChEMBL document CHEMBL2331358, “Novel agmatine dipeptide inhibitors against the West Nile virus NS2B/NS3 protease: a P3 and N-cap optimization study” (Eur J Med Chem, 2013)
